Values quoted from earlier work in patent US12533388B2, “Compositions and methods for prevention and treatment of immune deficiency and inflammation” (The United States GOVERNMENT As Represented By The …, priority 2020, dated 2026).

Key:
[1] = test system: STZ-induced diabetic mice; details: as compared to the STZ-induced diabetic control group without CHP treatment
Saccharomyces cerevisae = details: by inhibiting chitinase
[2] = test system: rat insulinoma cells (RINm5F); details: in vitro

O=C1N[C@@H](Cc2cnc[nH]2)C(=O)N2CCC[C@@H]12 [CHP, Cyclo (His-Pro)]
Oral glucose tolerance test (OGTT) values [1]: significantly decreased | plasma glucose levels dropped [1]: 60% | growth of Saccharomyces cerevisae (Saccharomyces cerevisae): inhibit | STZ-induced cytotoxicity and apoptosis [2]: prevented
